According to US7300763B2, “Method of testing myelotoxicity with the use of flow cytometer” (Teijin Limited, priority 2000, dated 2007):

Columns and labels:
rat bone marrow cells [1] = test: Myelotoxicity by flow cytometer analysis of cell surface antigen-expressing bone marrow cells after administration of 5-FU; type: in vivo; details: 50 mg/kg/day intravenously; for Number of CD45 Peak 1-expressing cells / Number of CD45 Peak 2-expressing cells / Number of CD45R-expressing cells / Number of CD71-expressing cells / Number of CD90-expressing cells: n = 3
Procedure: (1) Six-week-old male CD (SD) IGS rats purchased from Charles River Japan were used at the age of 8 weeks. During the housing period, the rats were fed with a feed for animals (Oriental Yeast Co., Ltd., CRF-1) and drinking water (well water containing 0.4% of a hypochlorite added) ad libitum. The animals were housed in metal cages (one animal per cage) and kept under conditions of a temperature of 23±1° C. and a humidity of 55±15%.
(2) The bone marrow was collected from left and right femurs. The femurs were taken out under anaethesia with pentobarbital, and both ends of the femurs were cut. The bone marrow was then flushed out with 1 mL of fetal bovine serum using a syringe with a 25G injection needle. Bone pieces or the like were removed by using a Pasteur pipette, and cells were then collected by centrifugation (3,000 rpm for 5 minutes).
(3) To 20 μL of the cells collected in (2), was added 5 mL of a phosphate-buffer-solution (PBS). Thereby, a cell suspension was obtained.
(4) To 200 μL of the cell suspension in (3), was added 2 μg of a specific antibody to the cell surface antigen. Incubation was carried out at room temperature for 45 minutes. Mouse IgG2a anti-rat CD2, mouse IgG1 anti-rat CD8, mouse IgA anti-rat CD11b, mouse IgG1 anti-rat CD45, mouse IgG2b anti-rat CD45R, mouse IgG2a anti-rat CD71 and mouse IgG2a anti-rat CD90 were used as the antibody. Mouse IgG1, mouse IgG2a, mouse IgG2b and mouse IgA were used as the isotype control antibody. All the antibodies labeled with fluorescein (FITC) (Pharmingen.) were used as the antibody.
(5) After incubation, 1 mL of Optilyse C (Beckman Coulter.) was added, and treatment was carried out for 10 minutes to hemolyze erythrocytes. After the hemolytic treatment, 1 mL of PBS was added, and incubation was carried out at room temperature for 10 minutes.
(6) Procedures of adding 1 mL of PBS to a cell precipitation obtained by centrifugation (3,000 rpm for 5 minutes) after incubation and thereby washing the cells were repeated twice.
(7) After washing, 2 mL of PBS was added to the cell precipitation to provide a cell suspension. Analysis was carried out with the use of a flow cytometer (EPICS XL-MCL, Beckman Coulter.) The analysis was conducted by following procedures described below. […] The fluorescence detector sensitivity of the flow cytometer was adjusted with the cells treated with the isotype antibody.
(§1) (2) 5-Fluorouracil (hereinafter abbreviated to 5-FU) as a chemotherapeutic agent in a dose of 50 mg/kg/day ([…], 10 mL/kg) was intravenously administered to the rats, and a physiological saline solution was used as the control substance.
(§2) The days of the experiment were indicated by the day of starting the administration as day 0. Groups for collecting the bone marrow on the day 0 and day 5 of the experiment were respectively set as groups administered with the control substance. Groups for collecting the bone marrow from day 1 to day 5 of the experiment were respectively set as groups administered with the 5-FU. The number of animals in each group was 3.
(4) Bone marrow collection, antibody treatment and analysis with the flow cytometer were carried out according to Example 1. A flow count (Beckman Coulter.) was added to the cell suspension during the flow cytometer analysis, and a calibration region was set on the cytogram of EPIS XL-MCL to make measurement. The absolute number of the respective cell surface antigen-expressing cells was calculated. Mouse IgGI anti-rat CD45, mouse IgG2b anti-rat CD45R, mouse IgG2a anti-rat CD71 and mouse IgG2a anti-rat CD90 were used as the antibody, and mouse IgG1, mouse IgG2a and mouse IgG2b were used as the isotype control antibody.
(6) The expression of cell surface antigens was measured for 15,000 bone marrow cells per individual with the use of the flow cytometer.

rat bone marrow cells [2] = test: Observation of smears of bone marrow (May-Grünwald and Giemsa staining) in rats administered with 5-FU; type: in vivo; set-up: key to Number of Cells, Erythroblasts / Number of Cells, Immature Myelocytes: —: Undetected; details: 50 mg/kg/day intravenously
Procedure: as §1, §2
(5) A part of bone marrow cells were suspended in an adequate amount of fetal bovine serum. An adequate amount of the resulting suspension was then dropped onto a slide glass, and a cover glass was obliquely applied to the droplet of the bovine fetal serum containing the bone marrow cells. The slide glass was directly moved to prepare smears (the wedge method). Each smear was subjected to May-Grünwald and Giemsa staining to carry out microscopic observation, and the ratio of the cells was calculated for each lineage and differentiation stage. After calculating the ratio, the resulting ratio was multiplied by the separately obtained number of bone marrow cells to determine the absolute number by observing the smear of each cell.
(7) Observation of smears was carried out for 500 bone marrow cells per individual (one smear).

O=c1[nH]cc(F)c(=O)[nH]1 [5-FU, 5-Fluorouracil]
Number of CD45 Peak 1-expressing cells (rat bone marrow cells [1]; Day 1, Mean ± SD): 1.65 ± 0.68 ×10^6/μL | Number of CD45 Peak 2-expressing cells (rat bone marrow cells [1]; Day 1, Mean ± SD): 0.76 ± 0.32 ×10^6/μL | Number of CD45R-expressing cells (rat bone marrow cells [1]; Day 1, Mean ± SD): 1.54 ± 0.69 ×10^6/μL | Number of CD71-expressing cells (rat bone marrow cells [1]; Day 1, Mean ± SD): 0.46 ± 0.17 ×10^6/μL | Number of CD90-expressing cells (rat bone marrow cells [1]; Day 1, Mean ± SD): 1.76 ± 0.79 ×10^6/μL | Number of CD45 Peak 1-expressing cells (rat bone marrow cells [1]; Day 2, Mean ± SD): 1.20 ± 0.32 ×10^6/μL | Number of CD45 Peak 2-expressing cells (rat bone marrow cells [1]; Day 2, Mean ± SD): 0.82 ± 0.20 ×10^6/μL | Number of CD45R-expressing cells (rat bone marrow cells [1]; Day 2, Mean ± SD): 1.46 ± 0.27 ×10^6/μL | Number of CD71-expressing cells (rat bone marrow cells [1]; Day 2, Mean ± SD): 0.30 ± 0.15 ×10^6/μL | Number of CD90-expressing cells (rat bone marrow cells [1]; Day 2, Mean ± SD): 1.58 ± 0.18 ×10^6/μL | Number of CD45 Peak 1-expressing cells (rat bone marrow cells [1]; Day 3, Mean ± SD): 0.34 ± 0.13 ×10^6/μL | Number of CD45 Peak 2-expressing cells (rat bone marrow cells [1]; Day 3, Mean ± SD): 0.75 ± 0.25 ×10^6/μL | Number of CD45R-expressing cells (rat bone marrow cells [1]; Day 3, Mean ± SD): 0.59 ± 0.11 ×10^6/μL | Number of CD71-expressing cells (rat bone marrow cells [1]; Day 3, Mean ± SD): 0.09 ± 0.05 ×10^6/μL | Number of CD90-expressing cells (rat bone marrow cells [1]; Day 3, Mean ± SD): 0.49 ± 0.10 ×10^6/μL | Number of CD45 Peak 1-expressing cells (rat bone marrow cells [1]; Day 4, Mean ± SD): 0.05 ± 0.02 ×10^6/μL | Number of CD45 Peak 2-expressing cells (rat bone marrow cells [1]; Day 4, Mean ± SD): 0.64 ± 0.24 ×10^6/μL | Number of CD45R-expressing cells (rat bone marrow cells [1]; Day 4, Mean ± SD): 0.41 ± 0.12 ×10^6/μL | Number of CD71-expressing cells (rat bone marrow cells [1]; Day 4, Mean ± SD): 0.02 ± 0.02 ×10^6/μL | Number of CD90-expressing cells (rat bone marrow cells [1]; Day 4, Mean ± SD): 0.16 ± 0.06 ×10^6/μL | Number of CD45 Peak 1-expressing cells (rat bone marrow cells [1]; Day 5, Mean ± SD): 0.03 ± 0.02 ×10^6/μL | Number of CD45 Peak 2-expressing cells (rat bone marrow cells [1]; Day 5, Mean ± SD): 0.51 ± 0.06 ×10^6/μL | Number of CD45R-expressing cells (rat bone marrow cells [1]; Day 5, Mean ± SD): 0.32 ± 0.08 ×10^6/μL | Number of CD71-expressing cells (rat bone marrow cells [1]; Day 5, Mean ± SD): 0.02 ± 0.01 ×10^6/μL | Number of CD90-expressing cells (rat bone marrow cells [1]; Day 5, Mean ± SD): 0.09 ± 0.02 ×10^6/μL | Change of number of CD45 (Peak 1)-expressing cells, in words (rat bone marrow cells [1]; day 1 to day 5): began decreasing in a period between day 1 and day 2 of the experiment and was decreased to such an extent of the scarcely observed expressing cells on day 4 of the experiment | Change of number of CD45 (Peak 2)-expressing cells, in words (rat bone marrow cells [1]; day 1 to day 5): A decrease was not observed | Change of number of CD45R-expressing cells, in words (rat bone marrow cells [1]; day 1 to day 5): the decrease continued on day 3 of the experiment and thereafter | Change of number of CD71-expressing cells, in words (rat bone marrow cells [1]; day 1 to day 5): decreased to such an extent of the scarcely observed expressing cells on day 3 of the experiment and thereafter | Change of number of CD90-expressing cells, in words (rat bone marrow cells [1]; day 1 to day 5): markedly decreased on day 3 of the experiment and thereafter | Number of Cells, Erythroblasts (rat bone marrow cells [2]; Day 1, Mean ± SD, n = 3): 0.18 ± 0.07 ×10^6/μL | Number of Cells, Immature Myelocytes (rat bone marrow cells [2]; Day 1, Mean ± SD, n = 3): 0.20 ± 0.10 ×10^6/μL | Number of Cells, Lymphocytes (rat bone marrow cells [2]; Day 1, Mean ± SD, n = 3): 2.01 ± 0.86 ×10^6/μL | Number of Cells, Mature Myelocytes (rat bone marrow cells [2]; Day 1, Mean ± SD, n = 3): 0.49 ± 0.22 ×10^6/μL | Number of Cells, Erythroblasts (rat bone marrow cells [2]; Day 2, Mean ± SD, n = 3): 0.02 ± 0.03 ×10^6/μL | Number of Cells, Immature Myelocytes (rat bone marrow cells [2]; Day 2, Mean ± SD, n = 3): 0.09 ± 0.04 ×10^6/μL | Number of Cells, Lymphocytes (rat bone marrow cells [2]; Day 2, Mean ± SD, n = 3): 1.46 ± 0.21 ×10^6/μL | Number of Cells, Mature Myelocytes (rat bone marrow cells [2]; Day 2, Mean ± SD, n = 3): 0.95 ± 0.32 ×10^6/μL | Number of Cells, Erythroblasts (rat bone marrow cells [2]; Day 3, Mean ± SD, n = 3): 0.003 ± 0.001 ×10^6/μL | Number of Cells, Immature Myelocytes (rat bone marrow cells [2]; Day 3, Mean ± SD, n = 3): 0.003 ± 0.001 ×10^6/μL | Number of Cells, Lymphocytes (rat bone marrow cells [2]; Day 3, Mean ± SD, n = 3): 0.62 ± 0.13 ×10^6/μL | Number of Cells, Mature Myelocytes (rat bone marrow cells [2]; Day 3, Mean ± SD, n = 3): 0.39 ± 0.03 ×10^6/μL | Number of Cells, Erythroblasts (rat bone marrow cells [2]; Day 4, Mean ± SD, n = 3): 0.001 ± 0.001 ×10^6/μL | Number of Cells, Lymphocytes (rat bone marrow cells [2]; Day 4, Mean ± SD, n = 3): 0.56 ± 0.20 ×10^6/μL | Number of Cells, Mature Myelocytes (rat bone marrow cells [2]; Day 4, Mean ± SD, n = 3): 0.12 ± 0.02 ×10^6/μL | Number of Cells, Immature Myelocytes (rat bone marrow cells [2]; Day 4, n = 3): — | Number of Cells, Lymphocytes (rat bone marrow cells [2]; Day 5, Mean ± SD, n = 3): 0.51 ± 0.08 ×10^6/μL | Number of Cells, Mature Myelocytes (rat bone marrow cells [2]; Day 5, Mean ± SD, n = 3): 0.03 ± 0.01 ×10^6/μL | Number of Cells, Erythroblasts (rat bone marrow cells [2]; Day 5, n = 3): — | Number of Cells, Immature Myelocytes (rat bone marrow cells [2]; Day 5, n = 3): — | Change of erythroblasts, in words (rat bone marrow cells [2]; day 1 to day 5): decreased to such an extent of the scarcely observed cells on day 3 of the experiment and thereafter | Change of immature myelocytes, in words (rat bone marrow cells [2]; day 1 to day 5): decreased to such an extent of the scarcely observed cells on day 3 of the experiment and thereafter | Change of lymphocytes, in words (rat bone marrow cells [2]; day 1 to day 5): decreased on day 3 of the experiment and thereafter | Change of number of mature myelocytes, in words (rat bone marrow cells [2]; day 1 to day 5): temporarily increased from day 1 to day 3 of the experiment and then decreased on day 4 of the experiment and thereafter
